# Source: patent US4512986A, “Progrestationally active steroids” (priority 1983, dated 1985)
# Values joined by “and” are separate entries in the source; they are usually repeats but may differ in a detail not shown here. Equal entries are not always repeated. “Also recorded” adds a separate entry of the source.
# How the values were obtained:
# [1] = molecular target: T1, Cytosol Androgen Receptor of the Castrate Adult Rat Ventral Prostate (Rattus norvegicus, UniProt P15207); experiment: Relative binding affinity for androgen receptor (competition with 3H-dihydrotestosterone); design: species or system rat (Charles River CD)
# T1 construct: Several ventral prostate glands pooled for each assay; tissue Charles River (animals, strain CD); host or cells: ventral prostate cytosol of castrated adult male rats
# T1 sequence (P15207 1-902): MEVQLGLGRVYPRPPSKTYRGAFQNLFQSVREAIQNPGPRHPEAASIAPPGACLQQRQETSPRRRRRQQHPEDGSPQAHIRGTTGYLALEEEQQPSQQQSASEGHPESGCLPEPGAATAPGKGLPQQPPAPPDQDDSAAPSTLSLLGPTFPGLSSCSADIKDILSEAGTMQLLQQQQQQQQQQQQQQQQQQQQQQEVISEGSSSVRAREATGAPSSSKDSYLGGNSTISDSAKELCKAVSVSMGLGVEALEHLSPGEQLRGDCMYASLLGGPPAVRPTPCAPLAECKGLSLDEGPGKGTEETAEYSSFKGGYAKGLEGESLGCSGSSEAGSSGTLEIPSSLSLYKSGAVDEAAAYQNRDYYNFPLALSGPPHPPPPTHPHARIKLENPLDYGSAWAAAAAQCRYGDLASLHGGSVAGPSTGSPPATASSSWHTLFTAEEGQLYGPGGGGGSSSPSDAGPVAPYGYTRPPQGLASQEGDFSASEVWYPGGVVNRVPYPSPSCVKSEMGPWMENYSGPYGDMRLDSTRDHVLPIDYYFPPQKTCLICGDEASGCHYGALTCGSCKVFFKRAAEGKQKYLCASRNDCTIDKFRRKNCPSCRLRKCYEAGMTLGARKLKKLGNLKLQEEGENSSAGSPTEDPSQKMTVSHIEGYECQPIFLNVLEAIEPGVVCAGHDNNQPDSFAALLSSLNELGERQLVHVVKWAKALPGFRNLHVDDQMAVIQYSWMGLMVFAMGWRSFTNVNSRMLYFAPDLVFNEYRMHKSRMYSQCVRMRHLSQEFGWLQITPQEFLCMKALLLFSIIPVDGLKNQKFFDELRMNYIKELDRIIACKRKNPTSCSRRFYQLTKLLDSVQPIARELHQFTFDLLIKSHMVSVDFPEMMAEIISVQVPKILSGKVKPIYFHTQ
# Procedure: The specific conditions, reagents, etc. used to derive the data from Table 2 are as follows:
# Animal Species. Adult male rat (Charles River CD).
# Pretreatment. Castration 17-24 hour prior to sacrifice.
# Tissue. Ventral prostate. Amount of tissue: 0.4 g/rat. Several ventral prostate glands pooled for each assay.
# Buffer. 0.05M Tris HCl, 0.05M Trisbase; 1 mM EDTA; 0.15 mM Dithiothreitol.
# Homogenization. Three five-second bursts with 30 second cooling periods between bursts using Brinkman Polytron Pt. 10 (3.5 setting).
# Temperature. 0°-4° C. all steps.
# Centrifugation. 45,000 rpm for 1 hr, 50 Ti rotor, Beckman L8-80 ultracentrifuge.
# Radiolabel. 1,2-^3 H-Dihydrotesterone-25,00 cpm/0.1 ml.
# Amounts of Addition. 0.1 ml cytosol, 0.1 ml ^3 H-dihydrotestosterone, 0.1 ml test compound, 0.3 ml buffer.
# Incubation. 16-18 hours at 0°-4° C.
# Concentrations. 1×10^-10 M to 1×10^-5 (7 concentrations).
# Method. Charcoal adsorption method used to remove unbound radioactivity. Five-tenths ml dextran-coated charcoal (0.5% Norit A and 0.05% dextran T-70) added to all except total radioactivity tubes (0.5 ml buffer added), tubes vortexed […], allowed to sit 10 min and centrifuged 10 min at 2000 rpm in Beckman TJ-6 centrifuge at 0°-4° C.
# estrous cycle of rats = experiment: Suppression of estrous cycles in rats; type: in vivo, rat; details: sc, 10 days
# Procedure: A control group was treated in parallel with 0.2 ml peanut oil per day. Treatment commenced at metestrus and vaginal smears were taken each morning during the 10-day treatment period and for 16 to 18 days thereafter.
# [2] = tested on: uterine endometrium of estrone-primed immature rabbits; experiment: Clauberg assay (progestational activity, McPhail); type: in vivo, rabbit (New Zealand White); details: for McPhail Index (0-4) (X ± S.D.): 0 none, 4 maximal
# cycling rats = experiment: Blockade of ovulation in rats; type: in vivo, rat (Charles River CD); details: for No. Rats Ovulated (of rats treated) / No. of Oviductal Eggs in Rats that Ovulated (X ± S.D.): single sc
# From the text: The treated rats were sacrificed on the morning of expected estrus and eggs, if present, were flushed from the oviducts and counted. | *This assay employs cycling Charles River CD rats. For methods refer to | Beattie, C. W. and A. Corbin, Endocrinology 97, 885, 1975. […] | diestrus. Rats were sacrificed 43 to 44 hr later on the morning of | expected estrus. Eggs, if present, were flushed from oviducts and counted | under a stereomicroscope.
compound,measurement,setting,value
"C#C[C@]1(C(C)=O)CC[C@H]2[C@@H]3CCC4=CC(=O)CC[C@]4(C)[C@H]3CC[C@@]21C [17α-Ethynylprogesterone, 17α-ethynylprogesterone]",RBA,"[1]; 16-18 hours at 0°-4° C., 5α-dihydrotestosterone = 100",0.09%
same,"androgen receptor binding affinity / androgenicity, in words",[1]; male rat androgenic receptors,extremely low binding affinity for male rat androgenic receptors
same,"estrous cycle during treatment, in words",estrous cycle of rats; 50 μg/day,continued regular four-day cycles during treatment
same,"estrous cycle during treatment, in words",estrous cycle of rats; 100 μg/day,"estrous cycles were disrupted; also recorded: some degree of follicular development occurred, but that ovulation was inhibited during treatment"
same,"estrous cycle during treatment, in words",estrous cycle of rats; 250 μg/day,estrous cycles were disrupted
same,"estrous cycle during treatment, in words",estrous cycle of rats; 500 μg/day,estrous cycles were disrupted; also recorded: follicular development and ovulation were effectively suppressed
same,"progestational potency relative to subcutaneous progesterone, in words","[2]; compound given orally, progesterone sc",progestational activity equivalent to subcutaneous progesterone
same,progestational potency relative to progesterone (sc),[2]; compound given sc,13 times
same,Uterine Weight (X ± S.D.),"[2]; oral, 10 μg/rabbit daily",0.94 ± 0.09 g
same,McPhail Index (0-4) (X ± S.D.),"[2]; oral, 10 μg/rabbit daily",0.08 ± 0.11
same,Uterine Weight (X ± S.D.),"[2]; oral, 20 μg/rabbit daily",0.98 ± 0.18 g
same,McPhail Index (0-4) (X ± S.D.),"[2]; oral, 20 μg/rabbit daily",0.04 ± 0.06
same,Uterine Weight (X ± S.D.),"[2]; oral, 50 μg/rabbit daily",0.86 ± 0.02 g
same,McPhail Index (0-4) (X ± S.D.),"[2]; oral, 50 μg/rabbit daily",0.00 ± 0.00
same,Uterine Weight (X ± S.D.),"[2]; oral, 100 μg/rabbit daily",1.79 ± 0.63 g and 1.13 ± 0.24 g
same,"progestational response, in words","[2]; oral, 100 μg/rabbit/day",inactive; also recorded: near the oral threshold dose
same,Uterine Weight (X ± S.D.),"[2]; oral, 200 μg/rabbit daily",1.67 ± 0.33 g
same,McPhail Index (0-4) (X ± S.D.),"[2]; oral, 200 μg/rabbit daily",1.40 ± 1.50
same,Uterine Weight (X ± S.D.),"[2]; oral, 400 μg/rabbit daily",1.70 ± 0.50 g
same,McPhail Index (0-4) (X ± S.D.),"[2]; oral, 400 μg/rabbit daily",1.80 ± 1.70
same,"progestational response, in words","[2]; oral, 200 and 400 μg/rabbit/day",partial progestational responses
same,Uterine Weight (X ± S.D.),"[2]; sc, 2.5 μg/rabbit daily",0.90 ± 0.06 g
same,McPhail Index (0-4) (X ± S.D.),"[2]; sc, 2.5 μg/rabbit daily",0.17 ± 0.23
same,"progestational response, in words","[2]; sc, 2.5 μg/rabbit/day",inactive
same,Uterine Weight (X ± S.D.),"[2]; sc, 5 μg/rabbit daily",1.63 ± 0.45 g
same,McPhail Index (0-4) (X ± S.D.),"[2]; sc, 5 μg/rabbit daily",1.50 ± 0.54
same,"progestational response, in words","[2]; sc, 5 μg/rabbit/day",partial progestational response
same,Uterine Weight (X ± S.D.),"[2]; sc, 10 μg/rabbit daily",3.23 ± 0.83 g
same,McPhail Index (0-4) (X ± S.D.),"[2]; sc, 10 μg/rabbit daily",3.83 ± 0.12
same,Uterine Weight (X ± S.D.),"[2]; sc, 20 μg/rabbit daily",4.41 ± 0.33 g
same,McPhail Index (0-4) (X ± S.D.),"[2]; sc, 20 μg/rabbit daily",4.00 ± 0.00
same,Uterine Weight (X ± S.D.),"[2]; sc, 50 μg/rabbit daily",5.54 ± 0.18 g
same,McPhail Index (0-4) (X ± S.D.),"[2]; sc, 50 μg/rabbit daily",4.0 ± 0.00
same,Uterine Weight (X ± S.D.),"[2]; sc, 100 μg/rabbit daily",4.19 ± 0.22 g
same,McPhail Index (0-4) (X ± S.D.),"[2]; sc, 100 μg/rabbit daily",4.0 ± 0.00
same,Uterine Weight (X ± S.D.),"[2]; sc, 200 μg/rabbit daily",4.99 ± 0.89 g
same,McPhail Index (0-4) (X ± S.D.),"[2]; sc, 200 μg/rabbit daily",4.0 ± 0.00
same,Uterine Weight (X ± S.D.),"[2]; sc, 400 μg/rabbit daily",5.90 ± 1.75 g
same,McPhail Index (0-4) (X ± S.D.),"[2]; sc, 400 μg/rabbit daily",4.0 ± 0.00
same,"progestational response, in words","[2]; sc, 10 and 20 μg/rabbit/day",maximal progestational responses
same,"progestational response, in words","[2]; sc, 50, 100, 200 and 400 μg/rabbit/day",full progestational responses
same,"ovulation, in words","cycling rats; 500 μg progesterone, 100, 250 or 500 μg 17α-ethynylprogesterone",ovulation was blocked in most rats
same,"ovulation, in words","cycling rats; 100 or 250 μg progesterone, 50 μg 17α-ethynylprogesterone",ovulated in a normal fashion
same,"potency in blocking ovulation relative to (±)-norgestrel, in words",cycling rats; comparison with literature,equipotent with (±)-norgestrel
same,"potency in blocking ovulation relative to progesterone, in words",cycling rats; sc,about five times as potent as progesterone
same,No. Rats Ovulated (of rats treated),cycling rats; 50 μg/rat,4/5
same,No. of Oviductal Eggs in Rats that Ovulated (X ± S.D.),cycling rats; 50 μg/rat,10.5 ± 2.1
same,No. Rats Ovulated (of rats treated),cycling rats; 100 μg/rat,1/5
same,No. of Oviductal Eggs in Rats that Ovulated (X ± S.D.),cycling rats; 100 μg/rat,3.0
same,No. Rats Ovulated (of rats treated),cycling rats; 250 μg/rat,1/5
same,No. of Oviductal Eggs in Rats that Ovulated (X ± S.D.),cycling rats; 250 μg/rat,6.0
same,No. Rats Ovulated (of rats treated),cycling rats; 500 μg/rat,0/5
same,No. of Oviductal Eggs in Rats that Ovulated (X ± S.D.),cycling rats; 500 μg/rat,0.0
